The values below come from ChEMBL document CHEMBL1137961, “Benzimidazolone p38 inhibitors” (Bioorg Med Chem Lett, 2004).

The target in this test is Mitogen-activated protein kinase 14 (Homo sapiens, UniProt Q16539). Kind of test: Inhibitory activity against mitogen activated protein (MAP) kinase p38 alpha.
Sequence of Mitogen-activated protein kinase 14 (Q16539 whole entry): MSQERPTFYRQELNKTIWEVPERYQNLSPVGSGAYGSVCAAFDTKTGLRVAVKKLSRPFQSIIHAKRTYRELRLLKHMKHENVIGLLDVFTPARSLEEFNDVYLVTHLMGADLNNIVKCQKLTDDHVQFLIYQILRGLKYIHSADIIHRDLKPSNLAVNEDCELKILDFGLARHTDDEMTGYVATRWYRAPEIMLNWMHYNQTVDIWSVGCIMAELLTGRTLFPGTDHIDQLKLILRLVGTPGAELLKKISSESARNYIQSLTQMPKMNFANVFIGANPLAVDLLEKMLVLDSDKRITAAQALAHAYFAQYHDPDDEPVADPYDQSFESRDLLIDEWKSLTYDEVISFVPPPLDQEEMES
The molecule `Cn1c(=O)n(C)c2cc(-c3[nH]c(-c4cccs4)nc3-c3cccc(F)c3)ccc21` showed a half-maximal inhibitory concentration (IC50) of 390 nM.
Molecule `CCn1c(=O)n(CC)c2cc(-c3[nH]cnc3-c3cccc(C)c3)ccc21` had an IC50 of 50 nM.
Under `Cn1c(=O)n(C)c2cc(-c3c[nH]nc3-c3ccccc3)ccc21` stands 200 nM; under `CCn1c(=O)n(CC)c2cc(-c3cccnc3-c3cccc(C)c3)ccc21`, over 1000 nM.
`Cc1ccccc1-c1nc(-c2cccs2)[nH]c1-c1ccc2c(c1)n(C)c(=O)n2C` displayed a half-maximal inhibitory concentration (IC50) of 6200 nM. This counts as single-digit micromolar.
Regarding `CCn1c(=O)n(CC)c2cc(-c3ccnn3-c3cccc(C)c3)ccc21`, the half-inhibitory concentration (IC50) was found to be 690 nM.
For `CCn1c(=O)n(CC)c2cc(-c3cc(-c4cccnc4)[nH]c3-c3cccc(C)c3)ccc21` the value was over 1000 nM.
For `Cc1cccc(-c2nc(C3CCNCC3)[nH]c2-c2ccc3c(c2)n(C)c(=O)n3C)c1` the value was 70 nM.
Consider `CCn1c(=O)n(CC)c2cc(-c3[nH]c(-c4cccnc4)nc3-c3cccc(C)c3)ccc21`, for which the IC50 was determined as 70 nM. In other words, the double-digit nanomolar range.
`CCn1c(=O)n(CC)c2cc(-c3c[nH]nc3-c3cccc(C(F)(F)F)c3)ccc21`: the IC50 was determined as 60 nM.
In the case of `Cn1c(=O)n(C)c2cc(-c3[nH]c(-c4cccs4)nc3-c3ccccc3)ccc21`, 260 nM corresponded to half-maximal inhibition (IC50).
`CCn1c(=O)n(CC)c2cc(-c3nnnn3-c3ccc(F)c(C)c3)ccc21` registered a 50% inhibitory concentration (IC50) of over 1000 nM.
As to `Cc1cccc(-c2nc(-c3cccs3)[nH]c2-c2ccc3c(c2)n(C)c(=O)n3C)c1`, the 50% inhibitory concentration (IC50) turned out to be 140 nM.
For `CCc1cccc(-c2[nH]c(-c3cccs3)nc2-c2ccc3c(c2)n(C)c(=O)n3C)c1` the value was 500 nM.
For `CCn1c(=O)n(CC)c2cc(-c3c[nH]cn3)ccc21` the value was over 1000 nM.
Take `Cn1c(=O)n(C)c2cc(-c3[nH]c(-c4cccs4)nc3-c3ccc(F)cc3)ccc21`: inhibition was half-maximal at 270 nM (IC50).
`Cc1ccc(-c2nc(-c3cccs3)[nH]c2-c2ccc3c(c2)n(C)c(=O)n3C)cc1`: the IC50 stood at 1800 nM. Compared with the last molecule, the IC50 is about 6.7-fold higher.
For `CC(C)c1cccc(-c2[nH]c(-c3cccs3)nc2-c2ccc3c(c2)n(C)c(=O)n3C)c1` the value was over 32000 nM; for `CCn1c(=O)n(CC)c2cc(-c3c[nH]nc3-c3ccc(F)c(C)c3)ccc21`, 30 nM.
Consider `Cc1cccc(-c2nc(-c3cccnc3)[nH]c2-c2ccc3c(c2)n(C)c(=O)n3C)c1`, for which the midpoint of inhibition, the IC50, lay at 200 nM.
For `Cc1cccc(-n2cncc2-c2ccc3c(c2)n(C)c(=O)n3C)c1` the value was 14400 nM; for `CCn1c(=O)n(CC)c2cc(-c3n[nH]cc3-c3cccc(C)c3)ccc21`, 730 nM.
With `Cn1c(=O)n(C)c2cc(-c3[nH]cnc3-c3ccc(F)cc3)ccc21`, 140 nM corresponded to half-maximal inhibition (IC50).
For `Cc1cccc(-c2nc[nH]c2-c2ccc3c(c2)n(C)c(=O)n3C)c1` the value was 100 nM; for `CCn1c(=O)n(CC)c2cc(-c3c[nH]nc3-c3cccc(C)c3)ccc21`, 9 nM; for `CCn1c(=O)n(CC)c2cc(-c3c(-c4ccc(F)cc4)ncn3C3CCNCC3)ccc21`, 90 nM.
Under `Cn1c(=O)n(C)c2cc(-c3[nH]cnc3-c3ccccc3)ccc21` stands 290 nM; under `Cn1c(=O)n(C)c2cc(-c3[nH]c(-c4cccs4)nc3-c3ccccc3Cl)ccc21`, 540 nM.
`Cn1c(=O)n(C)c2cc(-c3[nH]c(-c4cccs4)nc3-c3cccc(C(F)(F)F)c3)ccc21` returned an IC50 of 1500 nM.
Under `CCc1ccc(-c2[nH]c(-c3cccs3)nc2-c2ccc3c(c2)n(C)c(=O)n3C)cc1` stands 8000 nM; under `CCn1c(=O)n(CC)c2cc(-c3n[nH]cc3-c3ccccc3)ccc21`, 680 nM; under `Cc1cccc(-c2nncn2-c2ccc3c(c2)n(C)c(=O)n3C)c1`, 12500 nM.
Take `Cn1c(=O)n(C)c2cc(-c3n[nH]cc3-c3ccccc3)ccc21`: 2500 nM corresponded to half-maximal inhibition (IC50).
As for `Cn1c(=O)n(C)c2cc(-c3[nH]c(-c4ccc([S+](C)[O-])cc4)nc3-c3ccc(F)cc3)ccc21` (stereo not given), the half-inhibitory concentration (IC50) came to 4000 nM. This IC50 lies about 1.6-fold higher than the previous one.
`CCn1c(=O)n(CC)c2cc(-c3[nH]cnc3-c3ccc(F)cc3)ccc21` showed a half-maximal inhibitory concentration (IC50) of 100 nM.
In turn, `CCn1c(=O)n(CC)c2cc(-c3[nH]cnc3-c3ccccc3)ccc21` registered a 50% inhibitory concentration (IC50) of 140 nM.
For `CCn1c(=O)n(CC)c2cc(-n3nnnc3-c3ccc(F)c(C)c3)ccc21` the value was over 1000 nM.
`Cn1c(=O)n(C)c2cc(-c3[nH]c(-c4cccs4)nc3-c3ccccc3F)ccc21` came in with a half-inhibitory concentration (IC50) of 370 nM.
Consider `Cc1cccc(-c2[nH]c3nc(N)ccc3c2-c2ccc3c(c2)n(C)c(=O)n3C)c1`, for which half-maximal inhibition (IC50) required 260 nM.
In the case of `Cn1c(=O)n(C)c2cc(-c3[nH]c(-c4cccs4)nc3-c3ccc(Cl)cc3)ccc21`, inhibition was half-maximal at 680 nM (IC50).
`Cn1c(=O)n(C)c2cc(-c3[nH]c(-c4cccs4)nc3-c3cccc(OC(F)(F)F)c3)ccc21` had a half-maximal inhibitory concentration (IC50) of 15800 nM. Against the preceding molecule, the IC50 is about 23-fold higher.
Consider `CCn1c(=O)n(CC)c2cc(-c3c(-c4cccc(C)c4)nc(C4CCNCC4)n3C)ccc21`, for which the 50% inhibitory concentration (IC50) worked out at 1250 nM.
`CCn1c(=O)n(CC)c2cc(-c3ocnc3-c3cccc(C)c3)ccc21` displayed an IC50 of 800 nM.
Take `CCn1c(=O)n(CC)c2cc(-c3c[nH]nc3-c3ccccc3)ccc21`: inhibition was half-maximal at 200 nM (IC50). This IC50 is about 4-fold lower than that of the molecule before.
In turn, `Cn1c(=O)n(C)c2cc(-c3[nH]c(-c4cccs4)nc3-c3cccc(Cl)c3)ccc21` came in with an IC50 of 380 nM.
